According to article PMC5617326, “Structural Basis of Catalysis in the Bacterial Monoterpene Synthases Linalool Synthase and 1,8-Cineole Synthase” (ACS Catalysis, 2017):

Assays:
[1] = molecular target: T1, bLinS; linalool synthase; linalool/nerolidol synthase (Streptomyces clavuligerus, UniProt D5SL78); experiment: X-ray crystal structure, co-crystal; EPR with Mn2+; format: binding; conditions: 1.82 A; FGPP in monomer A only; one Mg2+; noncatalytic mode suggested; pH 7.5
T1 construct: gene SCLAV_p1185; full-length codon-optimized gene in pETM11, N-terminal 6xHis tag and TEV site, tag cleaved; E. coli ArcticExpress (DE3); ~330 residues; two molecules in asymmetric unit
T1 sequence (D5SL78 1-329): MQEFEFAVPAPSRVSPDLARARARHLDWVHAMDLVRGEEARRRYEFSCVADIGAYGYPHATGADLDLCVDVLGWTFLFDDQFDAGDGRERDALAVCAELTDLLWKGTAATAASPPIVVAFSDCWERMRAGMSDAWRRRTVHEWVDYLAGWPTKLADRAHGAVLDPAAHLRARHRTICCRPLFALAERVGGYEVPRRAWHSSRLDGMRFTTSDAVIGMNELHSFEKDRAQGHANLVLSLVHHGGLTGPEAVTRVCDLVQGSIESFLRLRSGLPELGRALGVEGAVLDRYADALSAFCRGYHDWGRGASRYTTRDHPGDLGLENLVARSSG

[2] = molecular target: T2, bCinS; 1,8-cineole synthase (Streptomyces clavuligerus, UniProt B5GMG2); experiment: X-ray crystal structure, FGPP soaked into FNPP co-crystal; EPR with Mn2+; format: binding; conditions: 1.51 A; partial exchange, mixed FNPP/FGPP occupancy; three Mg2+ (third partly occupied); active site
T2 construct: gene cnsA; full-length codon-optimized gene in pETM11, N-terminal 6xHis tag and TEV site, tag cleaved; E. coli ArcticExpress (DE3); ~330 residues; dimer
T2 sequence (B5GMG2 whole entry): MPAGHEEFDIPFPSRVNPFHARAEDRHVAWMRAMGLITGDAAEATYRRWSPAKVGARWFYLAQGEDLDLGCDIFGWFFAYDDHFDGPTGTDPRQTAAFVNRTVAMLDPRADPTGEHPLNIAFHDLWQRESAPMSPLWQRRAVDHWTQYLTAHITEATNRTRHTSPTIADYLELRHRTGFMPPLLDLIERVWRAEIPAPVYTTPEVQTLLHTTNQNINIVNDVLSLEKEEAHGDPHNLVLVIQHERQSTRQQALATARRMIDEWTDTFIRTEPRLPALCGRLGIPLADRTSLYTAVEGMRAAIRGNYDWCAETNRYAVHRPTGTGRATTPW

[3] = molecular target: T1, bLinS; linalool synthase; linalool/nerolidol synthase; experiment: product analysis by GC-MS in engineered E. coli; chiral GC; format: cell-based; conditions: host-made FPP in E. coli expressing bLinS; product trans-nerolidol

With `CC(C)=CCC/C(C)=C(\F)COP(=O)(O)OP(=O)(O)O` [FGPP, 2-fluorogeranyl pyrophosphate] the “X-ray crystal structure, co-crystal; EPR with Mn2+” value [1] was “clear electron density corresponding to FGPP is only present in monomer A” and the “X-ray crystal structure, FGPP soaked into FNPP co-crystal; EPR with Mn2+” value [2] was “Soaking of the bCinS-FNPP crystals with FGPP led to the partial exchange”.

With `CC(C)=CCC/C(C)=C/CC/C(C)=C/COP(=O)(O)OP(=O)(O)O` [FPP, farnesyl pyrophosphate] the “product analysis by GC-MS in engineered E. coli; chiral GC” value [3] was “Strains containing bLinS were able to convert FPP to nerolidol”.
